# Assays:
# [1] = molecular target: T1, human S1P1 receptor (Homo sapiens, UniProt P21453); experiment: Cell migration assay, T24 cells transfected stably with human S1P1 receptor; assay type: cell-based; design: expressed in transfected cells; settings: 50 nM antagonist
# Protocol: […] monolayers are co-transfected with the human S1P1, S1P2, S1P3 receptor encoding DNAs and the pIRESpuro2 plasmid DNA (Clontech, San Jose, Calif.,) using either Lipofectamine 2000 (Invitrogen, Carlsbad, Calif.) or FuGENE 6 (Roche Applied Science, Indianapolis, Ind.). Clonal populations expressing the puromycin acetyltransferase gene are selected by addition of puromycin (Sigma-Aldrich, St. Louis, Mo.) to the culture media. T24 cells are grown in monolayers at 37° C. in a 5% CO2/95% air atmosphere in growth media consisting of: 95% DMEM/F-12 medium and 10% charcoal/dextran stripped FBS.
# Cell migration assays are performed using modified Boyden chambers (tissue culture-treated, 24-mm diameter, 10-μm thickness, 8-μm pores, Transwell®; Costar Corp., Cambridge, Mass.) containing polycarbonate membranes that are coated on the underside with 0.1% gelatin. The underside of the polycarbonate membranes is rinsed once with migration media (DMEM/F12 without Phenol Red and 0.1% fatty acid free BSA) and then immersed in the lower chamber containing two milliliters of migration media. T24 cells transfected stably with human S1P1 receptor DNA were grown in DMEM/F12 media containing charcoal/dextran stripped FBS and 10 μg/ml puromycin to 100% confluence in 150×2.5 mm tissue culture plates and serum starved at least 12 hours. Serum-starved cells were removed from culture dishes with 10× Trypsin-EDTA (Hanks' balanced salt solution containing 5 mM EDTA and 25 mM HEPES, pH 7.2, and 0.1% trypsin; Invitrogen, San Diego, Calif.), suspended in migration buffer and collected by centrifugation at 130×g for 5 minutes. The supernatant fluid was removed by aspiration and cell pellet resuspended in migration media (10^6 cells/ml). […] The non-migrating cells in the upper chamber were removed by aspiration and the migratory cells attached to the bottom surface of the membrane were isolated by incubation in 10× Trypsin-EDTA for 1 min at room temperature and gently tapping the plate to dislodge cells from the membrane. The mass of migratory cells per membrane was evaluated by combining 100 μl of cell suspension with an equal volume of CyQuant dye solution (3.0 ml of 2× lysis buffer and 15 μl CyQuant dye), and the resulting fluorescence quantified using the FlexStation™ fluorimeter (Molecular Devices, Menlo Park, Calif.). Each determination represents the average of two individual migration chambers. […] The monolayer was washed three times with phosphate buffered saline and processed immediately for the cell migration assay, as described above.
# [2] = molecular target: T2, S1P2 receptor (Homo sapiens, UniProt O95136); experiment: [γ-35S]GTP binding assay, HEK293T membranes; assay type: biochemical; settings: for EC50: -log molar concentration giving 50% of maximal [γ-35S]GTP binding, ± S.E.M., read-out: pEC50 S1P2 (converted)
# T2 construct: expressed in transfected cells; host or cells: HEK293T, transient transfection; membranes
# From the text: (§1) The appropriate receptor plasmid DNA (encoding human S1P1, human S1P2, human S1P3, human S1P4, human S1P5, human LPA1, human LPA2 or human LPA3 receptors) is mixed with equal amounts of expression plasmids encoding human Gi2α (for S1P3, a mutated (C352F) rat Gi2α is used), cow β1, and cow γ2 proteins, and these DNAs are used to transfect monolayers of HEK293T cells (where ‘T’ indicates expression of the SV-40 virus large T antigen) using the calcium phosphate precipitate method (7). After about 60 hours, cells are harvested, membranes prepared, aliquoted, and stored at −70° C. until use (8).
# (§2) The [γ-^35S]GTP binding assay is performed as described previously (8). Membranes containing 1-5 μg of protein are incubated in 0.1 ml of binding buffer (in mM: HEPES/50, NaCl/100, MgCl2/10, pH 7.5) containing 5 μg of saponin, 10 μM GDP, 0.1 nM [γ-^35S]GTP (1200 Ci/mmol), and indicated lipid(s) for 30 min at 30° C. and collected using a Brandel Cell Harvester (Gaithersburg, Md.). Samples are then analyzed for bound radionuclide.
# (§3) Statistical Analysis. The EC50 and IC50 values for all dose response curves were determined by nonlinear regression analysis of all data using the Graphpad Prism© program. The error associated with the data collected is reported as the standard error of the mean (S.E.M).
# [3] = molecular target: T3, human S1P5 receptor (Homo sapiens, UniProt Q9H228); experiment: [γ-35S]GTP binding assay, HEK293T membranes; assay type: biochemical; settings: for EC50: -log molar concentration giving 50% of maximal [γ-35S]GTP binding, ± S.E.M., read-out: pEC50 S1P5 (converted)
# T3 construct: expressed in transfected cells; host or cells: HEK293T, transient transfection; membranes
# From the text: as §1, §2, §3
# [4] = molecular target: T4, human S1P4 receptor (Homo sapiens, UniProt O95977); experiment: [γ-35S]GTP binding assay, HEK293T membranes; assay type: biochemical; settings: -log molar concentration giving 50% of maximal [γ-35S]GTP binding; ± S.E.M.; read-out: pEC50 S1P4 (converted)
# T4 construct: expressed in transfected cells; host or cells: HEK293T, transient transfection; membranes
# T4 sequence (O95977 1-384): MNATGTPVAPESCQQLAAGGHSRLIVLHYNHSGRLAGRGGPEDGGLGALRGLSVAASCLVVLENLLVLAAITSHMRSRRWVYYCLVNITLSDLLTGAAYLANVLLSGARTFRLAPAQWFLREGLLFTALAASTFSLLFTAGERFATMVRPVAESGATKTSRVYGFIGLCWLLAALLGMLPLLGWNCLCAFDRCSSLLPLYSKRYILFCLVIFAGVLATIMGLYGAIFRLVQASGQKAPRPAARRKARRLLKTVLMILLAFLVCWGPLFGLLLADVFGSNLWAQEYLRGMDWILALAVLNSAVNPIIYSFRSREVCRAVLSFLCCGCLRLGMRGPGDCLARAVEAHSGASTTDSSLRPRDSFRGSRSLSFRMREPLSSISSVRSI
# From the text: as §1, §2, §3
# [5] = molecular target: T1, human S1P1 receptor; experiment: [γ-35S]GTP binding assay, HEK293T membranes (agonism and Schild antagonism); assay type: biochemical; design: expressed in transfected cells; host or cells: HEK293T, transient transfection; membranes; key to Schild analysis flag on pKb S1P1: *: Based on Schild analysis, the antagonism observed was not competitive; settings: for Kb: read-out: pKb S1P1 (converted); for Agonist efficacy class S1P1: relative to S1P Emax
# From the text: as §1, §2
# (§4) Briefly, nonlinear analysis of the best-fit line generated by plotting the negative log of the EC50 values obtained from agonist dose-response curves, in the absence and presence of varying concentrations of antagonist, was plotted against the concentration of antagonist to give the Kb value.
# as §3
# [6] = molecular target: T5, human S1P3 receptor (Homo sapiens, UniProt Q99500); experiment: as above; assay type: biochemical; design: expressed in transfected cells; host or cells: HEK293T, transient transfection; membranes; key to Schild analysis flag on pKb S1P3: *: Based on Schild analysis, the antagonism observed was not competitive; settings: for Kb: read-out: pKb S1P3 (converted); for Agonist efficacy class S1P3: relative to S1P Emax
# From the text: as §1, §2, §4, §3
# [7] = molecular target: T5, human S1P3 receptor; experiment: [32P]S1P binding assay, HEK293T membranes; design: expressed in transfected cells; host or cells: HEK293T, transient transfection; membranes; settings: for Ki: read-out: pKi S1P3 (converted)
# Protocol: (§5) [^32P]-S1P was prepared by incubating sphingosine and [γ-^32P]ATP with cell lysate from HEK293T cells transiently transfected with human sphingosine kinase type 2 DNA. The 200 μl reaction contained 0.025 mM sphingosine, 1 mCi [γ-^32P]ATP (7000 Ci/mmol) and kinase buffer (in mM: Mg(C2H3O2)2 (in 50 mM Tris, pH 7.5)/10, NaF/10, and semicarbizide/2). The reaction was initiated by the addition of 20 μg of cell lysate and incubated at 37° C. for at least 30 minutes. […] The organic layer was isolated and the extraction procedure repeated two additional times with the remaining aqueous fraction. The combined organic fractions were dried under a stream of nitrogen gas and resuspended in aqueous 0.1% fatty acid free BSA.
# (§6) Bound ligand was separated from free ligand by rapid filtration and analyzed in a liquid scintillation counter.
# as §3
# [8] = molecular target: T1, human S1P1 receptor; experiment: [32P]S1P binding assay, HEK293T membranes; design: expressed in transfected cells; host or cells: HEK293T, transient transfection; membranes; settings: read-out: pKi S1P1 (converted)
# Protocol: as §5, §6, §3
# [9] = Metabolic stability in biologic systems (mouse); assay type: in vivo; settings: in a mouse
# [10] = test system: S1P receptors; experiment: Antagonist properties (potency, S1P receptor type selectivity) compared with VPC23019
# T2 sequence (O95136 whole entry): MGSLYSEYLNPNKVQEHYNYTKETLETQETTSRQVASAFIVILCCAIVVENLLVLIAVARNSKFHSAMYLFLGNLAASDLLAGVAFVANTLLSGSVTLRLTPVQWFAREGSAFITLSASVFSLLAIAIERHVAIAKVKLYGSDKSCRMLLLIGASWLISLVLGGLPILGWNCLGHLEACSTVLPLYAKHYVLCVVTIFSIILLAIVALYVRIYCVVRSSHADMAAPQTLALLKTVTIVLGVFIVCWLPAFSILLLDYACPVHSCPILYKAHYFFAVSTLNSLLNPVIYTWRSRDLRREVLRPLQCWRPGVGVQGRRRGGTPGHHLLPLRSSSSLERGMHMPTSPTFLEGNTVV
# T3 sequence (Q9H228 whole entry): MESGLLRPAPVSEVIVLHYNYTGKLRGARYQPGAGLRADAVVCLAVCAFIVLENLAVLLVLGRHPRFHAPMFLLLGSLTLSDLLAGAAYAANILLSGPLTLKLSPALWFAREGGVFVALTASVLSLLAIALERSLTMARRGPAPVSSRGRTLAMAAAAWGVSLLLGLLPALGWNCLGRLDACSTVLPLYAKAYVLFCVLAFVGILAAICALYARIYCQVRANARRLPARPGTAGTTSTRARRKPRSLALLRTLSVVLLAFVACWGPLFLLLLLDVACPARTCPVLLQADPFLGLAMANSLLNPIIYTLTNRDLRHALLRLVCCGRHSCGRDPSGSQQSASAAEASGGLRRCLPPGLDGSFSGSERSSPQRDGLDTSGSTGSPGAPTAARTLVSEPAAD
# T1 sequence (P21453 whole entry): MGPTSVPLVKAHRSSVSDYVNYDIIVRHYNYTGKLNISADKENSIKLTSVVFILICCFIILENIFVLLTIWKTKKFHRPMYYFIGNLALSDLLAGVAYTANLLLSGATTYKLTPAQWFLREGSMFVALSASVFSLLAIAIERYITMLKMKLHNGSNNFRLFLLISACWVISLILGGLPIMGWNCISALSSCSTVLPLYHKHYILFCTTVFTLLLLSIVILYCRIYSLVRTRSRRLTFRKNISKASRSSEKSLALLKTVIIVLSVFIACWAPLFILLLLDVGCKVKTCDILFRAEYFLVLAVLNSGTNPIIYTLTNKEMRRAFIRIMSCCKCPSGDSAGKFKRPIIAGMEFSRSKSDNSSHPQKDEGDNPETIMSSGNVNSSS
# T5 sequence (Q99500 whole entry): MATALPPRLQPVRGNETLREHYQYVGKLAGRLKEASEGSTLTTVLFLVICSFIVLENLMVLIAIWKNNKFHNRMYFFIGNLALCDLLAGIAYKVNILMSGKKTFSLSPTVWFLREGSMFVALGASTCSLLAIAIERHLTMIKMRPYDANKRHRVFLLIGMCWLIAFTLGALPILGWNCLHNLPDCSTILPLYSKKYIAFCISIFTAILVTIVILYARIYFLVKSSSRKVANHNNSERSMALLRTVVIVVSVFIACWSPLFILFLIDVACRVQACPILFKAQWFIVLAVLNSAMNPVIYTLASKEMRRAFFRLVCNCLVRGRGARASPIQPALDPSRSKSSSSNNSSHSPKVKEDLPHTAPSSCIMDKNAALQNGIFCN
Blockade of VPC22277 (10 nM)-induced migration [1],EC50 [2],EC50 [3],EC50 [4],Kb [5],Schild analysis flag on pKb S1P3 [6],Kb [6],Ki [7],Ki [8],Agonist activity at the S1P1 receptor [5],"EC50 ([5]; -log molar concentration giving 50% of maximal [γ-35S]GTP binding, ± S.E.M., read-out: pEC50 S1P1 (converted))",Schild analysis flag on pKb S1P1 [5],Potency at the S1P3 receptor relative to lead compound VPC23019 [7],Metabolic stability in biologic systems [9],"Antagonist properties (potency, S1P receptor type selectivity) versus VPC23019 [10]",Structure (SMILES),Agonist efficacy class S1P1 [5],Agonist efficacy class S1P3 [6],Agonist efficacy class S1P2 ([2]; relative to S1P Emax),Agonist efficacy class S1P5 ([3]; relative to S1P Emax)
Blockade,> 10000 nM,> 10000 nM,851 nM,490 nM,*,437 nM,1580 nM,891 nM,,,,,,,CCCCCCCCc1ccccc1NC(=O)[C@H](N)COP(=O)(O)O [VPC23089],na (no agonist activity (<10% of S1P Emax)),na (no agonist activity (<10% of S1P Emax)),,
,,,,,,,,,agonists (or partial agonists),2.24 nM,,,,,CCCCCCCCc1cccc(NC(=O)[C@@H](N)COP(=O)(O)O)c1 [VPC25027],(pa) (partial agonist activity (50-85% of S1P Emax)),na (no agonist activity (<10% of S1P Emax)),na (no agonist activity (<10% of S1P Emax)),
Blockade,> 10000 nM,11.5 nM,166 nM,562 nM,,1410 nM,97.7 nM,13.5 nM,,,*,one log order more potent,,,CCCCCCCc1cccc(NC(=O)[C@H](N)COP(=O)(O)O)c1 [VPC25239],na (no agonist activity (<10% of S1P Emax)),na (no agonist activity (<10% of S1P Emax)),,(pa) (partial agonist activity (50-85% of S1P Emax))
,,,,,,,,,,,,,at least 18 hours,indistinguishable from VPC23019,CCCCCCCCc1cccc(NC(=O)[C@H](N)CCP(=O)(O)O)c1 [VPC44116],,,,

# Source: US7888527B2 (University of Virginia Patent Foundation, priority 2004, dated 2011)
